Assay results reported in publication PMC3668458 (Journal of neuroscience research, 2011).

Biological target: α4β2 nicotinic acetylcholine receptor (α4 subunit) (Homo sapiens, UniProt P17787+P43681)
Test: whole-cell patch clamp, Schild plot analysis of inhibition of ACh currents
Assay type: cell-based

Sequence of α4β2 nicotinic acetylcholine receptor (α4 subunit) (P43681 27-627): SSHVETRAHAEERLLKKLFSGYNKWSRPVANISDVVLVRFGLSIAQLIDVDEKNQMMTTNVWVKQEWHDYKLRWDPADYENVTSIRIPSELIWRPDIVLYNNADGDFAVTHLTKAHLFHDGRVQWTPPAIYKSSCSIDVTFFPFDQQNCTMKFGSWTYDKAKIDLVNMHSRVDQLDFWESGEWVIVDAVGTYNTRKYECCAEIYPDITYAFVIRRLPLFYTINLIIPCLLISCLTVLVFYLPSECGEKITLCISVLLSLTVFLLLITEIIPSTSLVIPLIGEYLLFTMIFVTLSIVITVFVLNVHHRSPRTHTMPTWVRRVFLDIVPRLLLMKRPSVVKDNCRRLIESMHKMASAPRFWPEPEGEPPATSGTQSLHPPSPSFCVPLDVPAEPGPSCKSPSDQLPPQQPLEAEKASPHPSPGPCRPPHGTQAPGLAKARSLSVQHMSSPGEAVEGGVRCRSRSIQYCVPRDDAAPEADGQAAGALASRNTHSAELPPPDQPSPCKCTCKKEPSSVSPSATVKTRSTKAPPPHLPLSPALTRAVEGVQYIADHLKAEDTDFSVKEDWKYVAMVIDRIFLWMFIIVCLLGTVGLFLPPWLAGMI
Sequence of α4β2 nicotinic acetylcholine receptor (α4 subunit) (P17787 26-502): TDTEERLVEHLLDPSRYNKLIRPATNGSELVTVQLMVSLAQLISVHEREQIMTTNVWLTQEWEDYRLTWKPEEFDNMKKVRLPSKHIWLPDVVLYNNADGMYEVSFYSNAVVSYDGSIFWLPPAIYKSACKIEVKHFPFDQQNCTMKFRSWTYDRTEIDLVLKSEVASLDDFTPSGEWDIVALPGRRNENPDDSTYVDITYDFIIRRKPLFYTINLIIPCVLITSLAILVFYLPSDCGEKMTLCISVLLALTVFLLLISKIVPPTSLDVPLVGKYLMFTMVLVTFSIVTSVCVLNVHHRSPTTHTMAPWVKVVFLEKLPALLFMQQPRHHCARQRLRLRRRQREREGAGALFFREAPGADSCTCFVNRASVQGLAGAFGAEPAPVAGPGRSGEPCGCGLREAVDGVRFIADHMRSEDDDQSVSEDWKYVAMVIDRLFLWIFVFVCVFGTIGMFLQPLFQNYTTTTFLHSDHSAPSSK

O=[N+]([O-])NC1=NCCN1Cc1ccc(Cl)nc1 [IMI, imidacloprid]
Kb: 18.2 ± 0.9 µM
